From patent US6664263B2, “1,8-naphthalimide imidazo{4,5,1-de}acridones with anti-tumor activity” (priority 2000, dated 2003)
Like-named read-outs stand apart in the source and are kept apart here.

Experiments:
MCF7 cells = assay: cells; type: cell-based; details: for IC50: read-out: IC50 - drug concentration which causes 50% cell growth inhibition
Excerpt: (§1) In Vitro Cytotoxicity Studies.

HL60 cells = assay: cells; type: cell-based; details: for IC50: read-out: IC50 - drug concentration which causes 50% cell growth inhibition
Excerpt: as §1

MELSK2 cells = assay: cells; details: for IC50: read-out: IC50 - drug concentration which causes 50% cell growth inhibition
Procedure: (§2) Cancer Cell Lines. Human colon carcinoma HCT116 and HT29, human melanoma MELSK2, human lung cancer A549, human leukemia HL60 and human breast cancer MCF7 cells were purchased from the American Type Culture Collection (Rockville, Md.). Human pancreatic tumor cell lines 6.03 and 10.05 were a gift from Dr. Elizabeth Jaffe, Johns Hopkins University.
(§3) In Vitro Cytotoxicity Studies. Cells were seeded in quadruplicate for each studied concentration in 96-well plates (100 μL of medium containing 2000-2500 cells per well) and were allowed to grow for 24 h (day 0). Stock solutions (2.5 mM) of test compounds were prepared freshly by dissolving their free base forms in distilled water-DMSO (50:50) mixture containing two equivalents of methanesulfonic acid and then diluted in distilled water to the concentration of 500 μM. These solutions were used to prepare 2 μM working solution and its 10-fold serial dilutions in appropriate media. 100 μL of drug containing medium or vehicle (control) was added to each well on day 1. The cytotoxicity was determined using two different methods: the MTT-based, CellTiter96™ Non-Radioactive Cell Proliferation Assay (Promega Inc., Madison, Wis.) according to instructions provided by the manufacturer, and/or the sulforhodamine B (SRB) method (Skehan et al., J. Natl. Cancer Inst. 82:1107-1112 (1990)). At the time at which drugs were added assays were performed on extra reference plates to determine the cell population density at time 0 (T0). After 96 h incubation at 37 ° C. in a humidified atmosphere containing 5% CO2, the assays were performed on test (T) and control (C) plates. The absorbance of the wells was determined by a Microplate Reader at […]. Cellular responses were calculated from the data as described previously: 100×[(T−T0)/(C−T0)] for T>T0 and 100×[(T−T0)/T0] for T<T0. (Monks et al., J. Natl. Cancer Inst. 83:757-766 (1991)).
(§4) At the end of the test period the wells are treated with the MTT dye solution and incubated for 4 hours. Cells which are alive convert the yellow tetrazolium dye into the blue, insoluble formazan product. This precipitate is solubilized, and the absorption at 570 nm is read in an ELISA reader.

HCT116 cells = assay: cells; details: for IC50: read-out: IC50 - drug concentration which causes 50% cell growth inhibition; for growth inhibition of HCT116 at 1 nM: MTT dose-response
Procedure: as §2, §3, §4

A549 cells = assay: cells; details: for IC50: read-out: IC50 - drug concentration which causes 50% cell growth inhibition
Procedure: as §2, §3, §4

HT29 cells = assay: cells; details: for IC50: read-out: IC50 - drug concentration which causes 50% cell growth inhibition
Procedure: as §2, §3, §4

[1] = test system: HCT116, HT29, A549 and MelSK2 tumor cell lines; assay: MTT cell proliferation assay at 100 nM on four tumor cell lines (FIG. 2); type: cell-based; details: 96 hours; for cytotoxic activity against the three adenocarcinomas: HCT116, HT29, A549
Procedure: as §2
as §3, with “(Monks et al., J. Natl. Cancer Inst. 83:757-766 (1991)).” left out
At the end of the test period the wells are treated with the MTT dye solution and incubated for 4 hours. […] This precipitate is solubilized, and the absorption at 570 nm is read in an ELISA reader.

[2] = test system: HCT 116 colon cancer cell; assay: Flow cytometry (FACS) cell cycle analysis, HCT116; type: cell-based, human; details: 100 nM for 6 hrs, then culture
Procedure: (§5) Flow Cytometry Analysis. A suspension of 0.5×10^6 cells in 8 ml of medium were placed in 25 cm^2 T flask and allowed to attach for 24 h. The cells were then exposed for 6 h to 100 nM of drug . After removal of drug the cells were washed with PBS. Fresh medium (8 ml) was added and incubation at 37° C. in 5% CO2 in complete humidity was continued for an additional five days. At appropriate intervals, treated and control cells were released from flasks by incubation with trypsin (0.05 mg/ml)/EDTA (0.02 mg/ml) for 5 min at 37° C., collected in ice-cold PBS, combined with the removed medium that might contain floating cells, and centrifuged at 4° C. Cell pellets were re-suspended in PBS containing 1% fetal bovine serum. The cells were fixed and stained for fluorescence-activated cell sorting according to standard procedures (Crissman et al., Cytometry 3:84-90(1992)). Fluorescence histograms were obtained on a Coulter EPICS753 Cell Sorter using an argon laser and mean peaks were analyzed.
In order to determine the mode of cell death induced by the compounds of the invention, the effect of the compound of Example 2 on the cell cycle was studied, utilizing Fluorescence Activated Cell Sorting SACS) analysis. HCT 116 colon cancer cell were treated with the compound of Example 2 for 6 hrs at a concentration of 100 nM, and then allowed to grow in culture for varying times.

[3] = test system: 10.05 pancreatic cancer line; assay: Flow cytometry (FACS) cell cycle analysis, 10.05; type: cell-based, human; details: 10.05 cells
Procedure: as §5
(§6) Similar cell cycle experiments were carried out on the 10.05 pancreatic cancer line.

[4] = test system: 6.03 pancreatic cancer cells; assay: Flow cytometry (FACS) cell cycle analysis, 6.03; type: cell-based, human; details: 6.03 cells
Procedure: as §5, §6

[5] = test system: 10.05 pancreatic cancer cells; assay: Morphological examination of treated cells; type: cell-based, human; details: 10.05 cells, treated vs untreated
Excerpt: The FACS analysis evidence of apoptosis was substantiated by morphological examination of the treated 10.05 pancreatic cancer cells. […] Similar results were obtained with the 6.03 cells.

[6] = test system: pancreatic cell line 6.03; assay: SRB-based assay, pancreatic cell line 6.03 (FIG. 5); design: species or system human; details: 120 hrs exposure
Excerpt: as §1
(§7) The compound of Example 2 is also potently cytotoxic against extremely refractory pancreatic cancer cell lines. FIG. 5 presents the results of an SRB-based assay on the toxicity of Example 2 against the four cell lines mentioned above, and against two pancreatic cell lines, 6.03 and 10.05 (obtained from Dr. Elizabeth Jaffe, Johns Hopkins University, Baltimore Md.). […] were exposed to the agent for 120 hrs. It is clear that both of these lines are sensitive to the compound.

[7] = test system: NCI 60 human tumor cell line panel; assay: NCI 60 human tumor cell line panel; type: cell-based; details: NCI 60 panel
[8] = test system: pancreatic cell line 10.05; assay: SRB-based assay, pancreatic cell line 10.05 (FIG. 5); design: species or system human; details: 120 hrs exposure
Excerpt: as §1, §7

[9] = test system: HCT116, HT29, A549 and Mel.SK2 tumor cell lines; assay: Sulforhodamine B (SRB) assay on the four tumor types (FIG. 4); type: cell-based; details: varying concentrations
Excerpt: as §1

[10] = MCF7, 96 h incubation, read-out: LC50 - drug concentration which causes 50% cell death
[11] = HL60, 96 h incubation, read-out: LC50 - drug concentration which causes 50% cell death
[12] = read-out: LC50 - drug concentration which causes 50% cell death, MELSK2, 96 h incubation
[13] = read-out: LC50 - drug concentration which causes 50% cell death, HCT116, 96 h incubation
[14] = read-out: LC50 - drug concentration which causes 50% cell death, A549, 96 h incubation
[15] = read-out: LC50 - drug concentration which causes 50% cell death, HT29, 96 h incubation

| Structure (SMILES) | IC50 (MCF7 cells; MCF7, 96 h incubation) | CC50 (MCF7 cells; [10]) | IC50 (HL60 cells; HL60, 96 h incubation) | CC50 (HL60 cells; [11]) | IC50 (MELSK2 cells; MELSK2, 96 h incubation) | CC50 (MELSK2 cells; [12]) | IC50 (HCT116 cells; HCT116, 96 h incubation) | CC50 (HCT116 cells; [13]) | IC50 (A549 cells; A549, 96 h incubation) | CC50 (A549 cells; [14]) | IC50 (HT29 cells; HT29, 96 h incubation) | CC50 (HT29 cells; [15]) | CC50 (MCF7 cells) | CC50 (HL60 cells) | cytotoxic activity against the three adenocarcinomas [1] | CC50 (MELSK2 cells) | CC50 (HCT116 cells) | growth inhibition of HCT116 at 1 nM (HCT116 cells; FIG. 3) | CC50 (A549 cells) | CC50 (HT29 cells) | also measured |
| --- | --- | --- | --- | --- | --- | --- | --- | --- | --- | --- | --- | --- | --- | --- | --- | --- | --- | --- | --- | --- | --- |
| CN(CCCNc1ccc2ncn3c4ccccc4c(=O)c1c23)CCCN1C(=O)c2cccc3cc([N+](=O)[O-])cc(c23)C1=O [Example 1] | 0.05 µM | > 1 µM | 0.12 µM | 0.5 µM | 0.15 µM | > 1 µM | 0.008 µM | 0.22 µM | 0.025 µM | 0.5 µM | 0.025 µM | 0.4 µM | – | – | – | – | – | – | – | – | – |
| O=C1c2cccc3cc([N+](=O)[O-])cc(c23)C(=O)N1CCCN1CCN(CCCNc2ccc3ncn4c5ccc(F)cc5c(=O)c2c34)CC1 [Example 4] | 0.0035 µM | – | 0.0035 µM | – | 0.004 µM | – | 0.0005 µM | – | 0.0006 µM | – | 0.0015 µM | – | > 1 µM | 0.033 µM | outstanding cytotoxic activity | 0.07 µM | 0.035 µM | almost complete growth inhibition | 0.035 µM | 0.035 µM | – |
| O=C1c2cccc3cc([N+](=O)[O-])cc(c23)C(=O)N1CCCN1CCN(CCCNc2ccc3ncn4c5ccccc5c(=O)c2c34)CC1 [Example 2] | 0.0032 µM | – | 0.0035 µM | – | 0.004 µM | – | 0.0005 µM | – | 0.0006 µM | – | 0.0009 µM | – | > 1 µM | 0.033 µM | outstanding cytotoxic activity | 0.06 µM | 0.032 µM | almost complete growth inhibition | 0.035 µM | 0.065 µM | cell cycle effect at 24 hrs ([2]; 24 hrs): growth arrested at G2-M; sub-G1 fraction (apoptotic death) at 96 hrs ([2]; 96 hrs): dominated the distribution; apoptosis (growth of the sub-G1 fraction) at 144 hrs [3]: substantial apoptosis; apoptosis by cell cycle analysis [4]: strong evidence of apoptosis; morphology of treated cells [5]: evidence of chromatin fragmentation; effect on line 6.03 at 100 nM [6]: growth arrested; median activity, growth inhibition of all of the tumor cell lines [7]: nanomolar range; effect on line 10.05 at 1 μM [8]: substantial cell death; cytotoxic activity in the SRB assay compared with MTT [9]: essentially mirror the results obtained with the MTT end-point |
| Nc1cc2c3c(cccc3c1)C(=O)N(CCCN1CCN(CCCNc3ccc4ncn5c6ccc(F)cc6c(=O)c3c45)CC1)C2=O [Example 8] | 0.046 µM | – | 0.004 µM | – | 0.02 µM | – | 0.0018 µM | – | 0.002 µM | – | 0.0035 µM | – | > 1 µM | 0.45 µM | – | > 1 µM | 0.23 µM | – | 0.15 µM | > 1 µM | – |
| CN(C)CCN1C(=O)c2cccc3cc([N+](=O)[O-])cc(c23)C1=O [Mitonafide, mitonafide, reference compound] | – | – | – | – | – | – | – | – | – | – | – | – | – | – | – | – | – | – | – | – | IC50 (MCF7 cells; Homo sapiens, MCF7, 96 h): 0.245 µM; CC50 (MCF7 cells; Homo sapiens, MCF7, 96 h, read-out: LC50 - drug concentration which causes 50% cell death): > 1 µM; IC50 (HL60 cells; Homo sapiens, HL-60, 96 h): 0.045 µM; CC50 (HL60 cells; Homo sapiens, HL-60, 96 h, read-out: LC50 - drug concentration which causes 50% cell death): 0.4 µM; activity at 100 nM drug concentration ([1]; HCT116, HT29, A549, MelSK2): not very active; IC50 (MELSK2 cells; Homo sapiens, 96 h): 0.15 µM; CC50 (MELSK2 cells; Homo sapiens, 96 h, read-out: LC50 - drug concentration which causes 50% cell death): 0.7 µM; concentration at which almost complete growth inhibition is reached (HCT116 cells; HCT116, MTT dose-response, FIG. 3): 1 µM; IC50 (HCT116 cells; Homo sapiens, HCT-116, 96 h): 0.25 µM; CC50 (HCT116 cells; Homo sapiens, HCT-116, 96 h, read-out: LC50 - drug concentration which causes 50% cell death): > 1 µM; IC50 (A549 cells; Homo sapiens, A549, 96 h): 0.065 µM; CC50 (A549 cells; Homo sapiens, A549, 96 h, read-out: LC50 - drug concentration which causes 50% cell death): 0.8 µM; IC50 (HT29 cells; Homo sapiens, HT-29, 96 h): 0.3 µM |
| Nc1cc2c3c(cccc3c1)C(=O)N(CCCN1CCN(CCCNc3ccc4ncn5c6ccccc6c(=O)c3c45)CC1)C2=O [Example 6] | 0.032 µM | > 1 µM | 0.005 µM | 0.45 µM | 0.015 µM | 0.75 µM | 0.0022 µM | 0.08 µM | 0.0025 µM | 0.1 µM | 0.008 µM | 0.75 µM | – | – | – | – | – | – | – | – | – |
